# Experimental data published in publication PMC5601486, “Identification of 4-phenylquinolin-2(1H)-one as a specific allosteric inhibitor of Akt” (Scientific Reports, 2017).
# pIC50: −log10 of the molar value. Values joined by “and” are separate entries in the source; they are usually repeats but may differ in a detail not shown here. Equal values may be shown once.
# Key:
# [1] = tested on: STK39; test: KINOMEscan; details: 50000 nM
# Protocol: KINOMEscan™ selectivity screen
# (§1) The assay was perfor med at DiscoveRx Corporation according the methods published previously5. Briefly, Kinase-tagged T7 phage strains were grown in parallel in an E. coli host derived from the BL21 strain. E. coli were grown to log-phase and infected with T7 phage from a frozen stock and incubated with shaking at 32°C until lysis (90-150 minutes). The kinases were produced in HEK-293 cells and subsequently tagged with DNA for qPCR detection. Streptavidin-coated magnetic beads were treated with biotinylated small molecule ligands to generate affinity resins for kinase
# (§2) inhibitor or DMSO control was performed in polypropylene 384-well plates for 1 hr at room temperature. After wash with PBS buffer containing 0.05% Tween 20, the beads were incubated in elution buffer (PBS containing 0.05 % Tween 20 and 0.5 μM non-biotinylated affinity ligand) for 30 minutes at room temperature. The kinase concentration in the eluates was measured by qPCR.
# [2] = molecular target: T1, Akt (Mus musculus, UniProt P31750); test: Akt activity assay (immunoprecipitated Akt, K-Lisa); type: cell-based
# T1 construct: subjected to immunoprecipitation using protein G-plus and anti-AKT PH domain (Millipore); endogenous in cells; host or cells: Neuro 2A (mouse neuroblastoma), IGF-stimulated
# T1 sequence (P31750 whole entry, the tested form may be a part): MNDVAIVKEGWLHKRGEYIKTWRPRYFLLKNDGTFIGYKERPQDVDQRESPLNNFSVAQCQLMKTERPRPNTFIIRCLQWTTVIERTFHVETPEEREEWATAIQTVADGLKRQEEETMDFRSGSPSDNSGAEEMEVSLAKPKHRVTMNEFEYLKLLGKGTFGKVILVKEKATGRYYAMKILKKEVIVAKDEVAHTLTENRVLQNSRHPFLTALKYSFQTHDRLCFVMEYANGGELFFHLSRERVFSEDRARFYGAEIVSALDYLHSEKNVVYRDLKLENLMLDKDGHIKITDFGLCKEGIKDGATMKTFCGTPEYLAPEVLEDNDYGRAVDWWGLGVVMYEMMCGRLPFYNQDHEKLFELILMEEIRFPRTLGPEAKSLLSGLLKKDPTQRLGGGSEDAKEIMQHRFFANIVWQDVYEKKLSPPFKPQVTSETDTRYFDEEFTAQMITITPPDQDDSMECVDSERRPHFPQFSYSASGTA
# Protocol: After overnight starvation by incubating with serum-free DMEM, Neuro 2A cells were treated with compound G7 at various concentrations for 30 min at room temperature followed by stimulation with IGF (final concentration of 100 ng/mL) for 30 min. Cells were lysed with lysis buffer containing 1% Triton X-100 and protease/phosphatase inhibitors (Cell Signaling Technology) and subjected to immunoprecipitation using protein G-plus and anti-AKT PH domain (Millipore). The activity of the immunopurified Akt was evaluated using a K-Lisa Akt activity kit (Millipore) in accordance with manufacturer’s instructions. The activity was normalized to Akt level in the immunoprecipitates determined by quantitative western blot analysis.
# [3] = tested on: PIP5K2C; test: KINOMEscan; details: 50000 nM
# Protocol: KINOMEscan™ selectivity screen
# (§3) Briefly, Kinase-tagged T7 phage strains were grown in parallel in an E. coli host derived from the BL21 strain. E. coli were grown to log-phase and infected with T7 phage from a frozen stock and incubated with shaking at 32°C until lysis (90-150 minutes). The kinases were produced in HEK-293 cells and subsequently tagged with DNA for qPCR detection. Streptavidin-coated magnetic beads were treated with biotinylated small molecule ligands to generate affinity resins for kinase
# as §2
# [4] = tested on: RSK3(Kin.Dom.2-C-terminal); test: KINOMEscan; details: 50000 nM
# Protocol: KINOMEscan™ selectivity screen
# as §1, §2
# [5] = tested on: HIPK1; test: KINOMEscan; details: 50000 nM
# Protocol: KINOMEscan™ selectivity screen
# as §3, §2
# [6] = tested on: FGFR3(G697C); test: KINOMEscan; details: 50000 nM
# Protocol: KINOMEscan™ selectivity screen
# as §1, §2
# [7] = tested on: PRKD2; test: KINOMEscan; details: 50000 nM
# Protocol: KINOMEscan™ selectivity screen
# as §1, §2
# [8] = tested on: RPS6KA5(Kin.Dom.2-C-terminal); test: KINOMEscan; details: 50000 nM
# Protocol: KINOMEscan™ selectivity screen
# Briefly, Kinase-tagged T7 phage strains were grown in parallel in an E. coli host derived from the BL21 strain. E. coli were grown to log-phase and infected with T7 phage from a frozen stock and incubated with shaking at 32°C until lysis (90-150 minutes). The kinases were produced in HEK-293 cells and subsequently tagged with DNA for qPCR detection.
# After wash with PBS buffer containing 0.05% Tween 20, the beads were incubated in elution buffer (PBS containing 0.05 % Tween 20 and 0.5 μM non-biotinylated affinity ligand) for 30 minutes at room temperature. The kinase concentration in the eluates was measured by qPCR.
# [9] = tested on: GRK7; test: KINOMEscan; details: 50000 nM
# Protocol: KINOMEscan™ selectivity screen
# (§4) The assay was perfor med at DiscoveRx Corporation according the methods published previously5. […] The kinases were produced in HEK-293 cells and subsequently tagged with DNA for qPCR detection. Streptavidin-coated magnetic beads were treated with biotinylated small molecule ligands to generate affinity resins for kinase
# as §2
# [10] = tested on: MELK; test: KINOMEscan; details: 50000 nM
# Protocol: KINOMEscan™ selectivity screen
# as §1, §2
# [11] = tested on: EIF2AK1; test: KINOMEscan; details: 50000 nM
# Protocol: KINOMEscan™ selectivity screen
# as §1, §2
# [12] = tested on: CAMK2B; test: KINOMEscan; details: 50000 nM
# Protocol: KINOMEscan™ selectivity screen
# as §3, §2
# [13] = tested on: cleaved caspase 3; test: Western blot of cleaved caspase 3; type: cell-based, Mouse; details: Neuro 2A cells
# Protocol: Neuro 2A cells were seeded in 12-well plates in DMEM containing 5% FBS for 24 hr.
# After overnight serum starvation (in 0% FBS DMEM), cells were incubated for 30 min at 37 °C with G7 or LY294002 or Torin 1 (Sigma Aldrich) at various concentrations, or DMSO control. IGF-1 was added to each well at a final concentration of 100 ng/mL. After 30-min incubation cells were washed with cold PBS and lysed with 50 µL lysis buffer containing 1% Triton X-100 and protease/phosphatase inhibitors (Cell Signaling Technology) or RIPA buffer (Santa Cruz Biotech). Samples were electrophoresed in 4–12% Bis-Tris gels (Life Technologies) at 150 V using MOPS SDS running buffer. Proteins were transferred electrophoretically to a PVDF or nitrocellulose membrane. For detection of cleaved […]
# caspase 3 a Trans-Blot Turbo Transfer System (Bio-Rad, 25 V for 25 min) with PVDF membrane were used. […]
# anti- GAPDH (14C10) antibody (#2118) (all antibodies were from Cell Signaling Technology unless indicated, 1:1000 dilution was used) at 4°C overnight, washed three times with TBS-T, then incubated with peroxidase-conjugated secondary antibody (Sigma-Aldrich) for 1 hr at room temperature. […] Band intensity was quantitated using Kodak 1D imaging analysis software. […]
# [14] = tested on: FES; test: KINOMEscan; details: 50000 nM
# Protocol: KINOMEscan™ selectivity screen
# as §3, §2
# [15] = tested on: T2, PI3K; test: ADP-Glo kinase assay; type: biochemical; details: 50 µM
# T2 construct: purchased SignalChem P27-10H-05
# [16] = tested on: LATS2; test: KINOMEscan; details: 50000 nM
# Protocol: KINOMEscan™ selectivity screen
# as §3, §2
# [17] = tested on: LCK; test: KINOMEscan; details: 50000 nM
# Protocol: KINOMEscan™ selectivity screen
# as §1, §2
# [18] = tested on: CHEK1; test: KINOMEscan; details: 50000 nM
# Protocol: KINOMEscan™ selectivity screen
# as §1, §2
# [19] = tested on: MRCKB; test: KINOMEscan; details: 50000 nM
# Protocol: as §3, §2
# [20] = tested on: PKN1; test: KINOMEscan; details: 50000 nM
# Protocol: KINOMEscan™ selectivity screen
# as §1, §2
# [21] = tested on: DAPK2; test: KINOMEscan; details: 50000 nM
# Protocol: KINOMEscan™ selectivity screen
# as §1, §2
# [22] = tested on: BIKE; test: KINOMEscan; details: 50000 nM
# Protocol: KINOMEscan™ selectivity screen
# as §4, §2
# [23] = tested on: ERBB4; test: KINOMEscan; details: 50000 nM
# Protocol: KINOMEscan™ selectivity screen
# as §1, §2
# [24] = tested on: FRK; test: KINOMEscan; details: 50000 nM
# Protocol: KINOMEscan™ selectivity screen
# as §1, §2
# [25] = tested on: NLK; test: KINOMEscan; details: 50000 nM
# Protocol: KINOMEscan™ selectivity screen
# as §1, §2
# [26] = tested on: JAK1(JH2domain-pseudokinase); test: KINOMEscan; details: 50000 nM
# Protocol: KINOMEscan™ selectivity screen
# as §1, §2
# [27] = tested on: PLK3; test: KINOMEscan; details: 50000 nM
# Protocol: KINOMEscan™ selectivity screen
# as §3, §2
# [28] = tested on: ABL1(M351T)-phosphorylated; test: KINOMEscan; details: 50000 nM
# Protocol: KINOMEscan™ selectivity screen
# as §4, §2
# [29] = tested on: DCAMKL2; test: KINOMEscan; details: 50000 nM
# Protocol: KINOMEscan™ selectivity screen
# as §1, §2
# [30] = tested on: WNK4; test: KINOMEscan; details: 50000 nM
# Protocol: as §3, §2
# [31] = tested on: T3, CDC2L5; test: KINOMEscan; type: binding, human; details: 50000 nM
# T3 construct: purchased DiscoveRx KINOMEscan
# [32] = tested on: STK36; test: KINOMEscan; details: 50000 nM
# Protocol: KINOMEscan™ selectivity screen
# as §1, §2
smiles,measurement,setting,value
"Oc1cc(-c2ccccc2)c2ccccc2n1 [G7, 4-phenylquinolin-2(1H)-one]",Percent Control,[1],85%
same,decrease of Akt activity,[2]; G7 at 50 µM,~ 80%
same,pIC50,"[2]; IGF-stimulated Neuro 2A cells, Akt immunoprecipitated, read-out: IC50 on Akt enzymatic activity",5.22 and 5.21
same,Percent Control,[3],83%
same,Percent Control,[4],59%
same,Percent Control,[5],74%
same,Percent Control,[6],98%
same,Percent Control,[7],82%
same,Percent Control,[8],93%
same,Percent Control,[9],52%
same,Percent Control,[10],97%
same,Percent Control,[11],100%
same,Percent Control,[12],92%
same,levels of the cleaved caspase 3,[13],elevated levels
same,Percent Control,[14],92%
same,effect on PI3K activity,[15],no effects
same,Percent Control,[16],23%
same,Percent Control,[17],80%
same,Percent Control,[18],85%
same,Percent Control,[19],84%
same,Percent Control,[20],89%
same,Percent Control,[21],83%
same,Percent Control,[22],52%
same,Percent Control,[23],86%
same,Percent Control,[24],89%
same,Percent Control,[25],82%
same,Percent Control,[26],5.5%
same,Percent Control,[27],83%
same,Percent Control,[28],55%
same,Percent Control,[29],97%
same,Percent Control,[30],88%
same,Percent Control,[31],87%
same,Percent Control,[32],95%
